Measured values taken from patent US20110268812A1, “Cosmetic or dermatological composition comprising the combination of honey and a peptide” (LVMH RECHERCHE, priority 2010, published 2011).
Ends that are not written are not given here. * marks the point of attachment. Palmitoyl = CCCCCCCCCCCCCCCC(=O)*

Tested on: normal human fibroblasts (NHFs)
Experiment: In vitro healing test: recolonization of the damaged zone by fibroblasts (IBIDI culture inserts)
Assay type: cell-based
Settings: 16 h treatment in DMEM alone, final concentrations: clover honey 100 μg/mL, Pal-VGVAPG solution 1%, change vs nontreated control (NT)
Method: This experiment is based on a model of biocompatible cell culture inserts allowing quantitative and perfectly reproducible measurement of the phenomena of healing in vitro.
The cells used in this study are normal human fibroblasts (NHFs).
The cells are seeded in 175 cm^2 flasks at a density of 1 million per flask in DMEM (Dulbecco's Modified Eagle's Medium) culture medium supplemented with 10% of foetal calf serum and 1.3 mM L-glutamine. Having reached confluence, the cells are trypsinized and re-seeded for the healing test.
Before seeding of the cells, inserts sold in the form of kits under the name Culture-Insert (ref. 80209) by the company IBIDI (Germany) are placed at the bottom of six wells of a plate. […]
The cells are maintained in culture for 16 h (optimum measurement time determined previously), in an incubator at 37° C. and in an atmosphere containing 5% CO2. […]
Images are immediately taken on a Nikon TE2000 video microscope in blue fluorescence (cell nuclei) and red fluorescence (actin filaments), at a rate of 2 photos per well at the damaged zone.
Image analysis is used to visualize and quantify the colonization by fibroblasts of the artificially “damaged” zone after removal of the insert. […]
The number of cells that have recolonized the damaged zone, per unit area (cm^2), is calculated. […]

**Q.** For “palmitoyl-Val-Gly-Val-Ala-Pro-Gly (Palmitoyl-VGVAPG) [Pal-VGVAPG, sold in the form of an aqueous-glycolic solution under the trade name Biopeptide EL by the company Sederma]”, which “recolonization of the damaged zone (number of cells having recolonized per cm^2) compared with the nontreated control” value is on record?
**A.** +150%
